These are literature values, as cited in patent publication US20240299434A1, “URIDINE TRIACETATE AMORPHOUS FORMULATION” (PHARMA CINQ. LLC, priority 2021, published 2024).

The conditions of data set [1]: humans.
The conditions of data set [2]: mice.

Each structure is given as a SMILES string. Where two headings read alike, the source gives them in different places.

With `O=c1ccn([C@@H]2O[C@H](CO)[C@@H](O)[C@H]2O)c(=O)[nH]1` [uridine], the oral bioavailability entry in data set [1] and in data set [2] was “approximately 7%” each time.

Regarding `CC(=O)OC[C@H]1O[C@@H](n2ccc(=O)[nH]c2=O)[C@H](OC(C)=O)[C@@H]1OC(C)=O` [Uridine triacetate, 2′,3′,5′-Tri-O-acetyluridine], the solubility in water entry is listed as “approximately 10 milligrams per milliliter”.
